According to patent US3963777A, “1-Polyhydroxy alkyl-1,4-benzodiazepin-2-ones” (Hoffmann-La Roche Inc., priority 1975, dated 1976):

How the values were obtained:
mice = experiment: standard rotating rod test (sedative and muscle-relaxant activity); assay type: in vivo; details: p.o.
Experimental: In this test, the ability of mice to achieve a coordinated motor performance is investigated. After peroral administration of the test substance, the mice are placed upon a horizontal slowly rotating rod and the time they remain on the rod is recorded. The ED50 is that dose which reduces the holding on period of the mice by 50% as compared to the holding on period prior to the administration of the test substance.

[1] = standard pentamethylenetetrazole (pentetrazole) test for anticonvulsant activity, method of Orloff; assay type: in vivo; details: p.o.
From the text: The compounds of formula I above and their pharmaceutically acceptable acid addition salts are useful as sedative muscle relaxant and anti-convulsant agents.

[2] = LD50 (p.o.), acute toxicity; details: in vivo, po

In the case of `O=C1CN=C(c2ccccc2F)c2cc(Cl)ccc2N1CC(O)CO` (stereo not drawn) [Compound A, 7-chloro-1-(2,3-dihydroxypropyl)-5-(2-fluorophenyl)-1,3-dihydro-2H-1,4-benzodiazepin-2-one], the “ED50 (dose which reduces the holding on period of the mice by 50% as compared to the holding on period prior to administration)” value (mice) is reported as 5.1 mg/kg, the “APR 2.0 (dosage of an anticonvulsant which causes a two-fold pentetrazole consumption in contrast to an untreated control group)” value [1] is reported as 5.6 mg/kg and the LD50 [2] is reported as 1250 to 2500 mg/kg.
